The text below walks through data of PubChem BioAssay AID1159585 (Gregory J. Crowther, 2016).

In this assay the target is Calcium-dependent protein kinase 1 (Plasmodium falciparum (isolate 3D7)) (UniProt P62344). Description: PfCDPK1 kinase inhibitors, biochemical, TCAMS library (AID 1159585).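 Note: inhibitors leave more ATP so luminescence rises with inhibition.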 Particulars: recombinant PfCDPK1, Kinase-Glo ATP depletion luminescence.
Sequence of Calcium-dependent protein kinase 1 (Plasmodium falciparum (isolate 3D7)) (P62344 whole entry, looked up): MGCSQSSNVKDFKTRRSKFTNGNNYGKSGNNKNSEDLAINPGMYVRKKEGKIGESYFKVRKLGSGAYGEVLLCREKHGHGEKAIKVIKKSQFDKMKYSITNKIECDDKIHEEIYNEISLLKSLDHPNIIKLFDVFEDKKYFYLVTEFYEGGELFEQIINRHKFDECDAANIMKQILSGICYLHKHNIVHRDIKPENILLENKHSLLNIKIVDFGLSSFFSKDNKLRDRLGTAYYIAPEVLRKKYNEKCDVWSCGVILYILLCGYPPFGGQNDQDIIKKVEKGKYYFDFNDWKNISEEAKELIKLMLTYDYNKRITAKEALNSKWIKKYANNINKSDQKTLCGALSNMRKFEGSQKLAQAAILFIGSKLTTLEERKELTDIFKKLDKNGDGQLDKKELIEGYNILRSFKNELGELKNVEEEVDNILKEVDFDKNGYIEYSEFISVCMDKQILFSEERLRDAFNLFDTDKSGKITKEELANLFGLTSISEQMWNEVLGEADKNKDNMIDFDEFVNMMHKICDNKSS
As for `CN(C)CCOc1ccc(-c2cc(-c3ccc(Cl)c(O)c3)c(-c3ccnc(N)n3)o2)cc1`, the IC50 (usually the concentration that inhibits the measured activity by half) was 168 nM.
For the molecule `NC(=O)c1ccccc1Nc1nc(Nc2cccc(N3CCN(CCO)CC3)c2)ncc1Cl`, the IC50 is 58 nM.
As to `CCn1c(-c2nonc2N)nc2c(-c3cccc(NC(=O)NC45CC6CC(CC(C6)C4)C5)c3)ncc(OCCCN)c21`, the IC50 is 84 nM.
Turning to `c1cncc(Oc2ccc(Nc3ccnc4cc(-c5cccc(CNCCN6CCOCC6)c5)ccc34)cc2)c1`, the IC50 was 705 nM.
With `Cc1ccc(Nc2nccc(N(C)c3ccc4c(c3)nc(NC(=O)Cc3ccc(Cl)c(Cl)c3)n4C)n2)cc1S(N)(=O)=O`, the IC50 was 345 nM.
For the molecule `CC(C)(CNC(=O)C1CCN(CCOCc2ccccc2)CC1)c1nc(-c2ccc(Cl)c(O)c2)c(-c2ccncc2)[nH]1`, the IC50 is 734 nM.
`CCNC(=O)Nc1ccc(-c2cnc(N)c(-c3nc4ccc(OC)cc4[nH]3)c2)cc1`: the IC50 was 145 nM.
In the case of `NC(=O)c1ccccc1Nc1nc(Nc2ccn[nH]2)ncc1Cl` it was 186 nM; in that of `CNCC(C)(C)c1nc(-c2ccc(Cl)c(O)c2)c(-c2ccncc2)[nH]1`, 49 nM.
`COc1cc(-c2nc(C(C)(C)CN)[nH]c2-c2ccncc2)ccc1Br`: the concentration for half-maximal inhibition (IC50) was 159 nM.
On to `Clc1ccc(-c2cnc3ccc(NCCc4cccnc4)nn23)cc1`, for which the IC50 was 371 nM.
With `CN(C)CCN(C)Cc1ccc(-c2ccc3c(Nc4ccc(Cl)cc4F)ccnc3c2)o1`, the IC50 was 604 nM.
In the case of `CN1CCN(Cc2ccc(-c3ccc4c(Nc5ccc(Cl)cc5F)ccnc4c3)o2)CC1` it was 406 nM; in that of `Cc1cc(Nc2ncc(C#N)c(Nc3ccccc3C(N)=O)n2)ccc1N1CCN(C)CC1`, 10 nM; in that of `COc1ccc(-c2cnc3ccc(NC4CCC(O)CC4)nn23)cn1` (configuration not stated), 379 nM.
Turning to `O=C(Nc1cccc(-c2nn3ncccc3c2-c2ccnc(Nc3cccc(-c4cnco4)c3)n2)c1)c1c(F)cccc1F`, the IC50 was 23 nM.
`O=C(NC1CC1)c1ccc(Nc2nccc(-c3c(-c4cccc(NC(=O)c5c(F)cccc5F)c4)nn4ccccc34)n2)cc1`: the IC50 was 26 nM.
As for `O=C(NCCCN1CCCCC1)c1ccc(Nc2nccc(Nc3ccc(Oc4ccccc4)cc3)n2)cc1`, the IC50 is 94 nM.
Turning to `NCCCOc1cnc(-c2ccccc2)c2nc(-c3nonc3N)n(CCc3ccccc3)c12`, the IC50 is 47 nM.
On to `CS(=O)(=O)c1cccc(-c2cnc3[nH]cc(-c4cccc(CCN)c4)c3c2)c1`, for which the IC50 is 44 nM.
For `CCn1c(-c2nonc2N)nc2c(-c3cccc(NC(=O)Nc4ccc(C#N)cc4)c3)ncc(OCCCN)c21`, the IC50 was 235 nM.
On to `Oc1cccc(Nc2ccnc3cc(-c4nccs4)ccc23)c1`, for which the IC50 was 997 nM.
Take `CS(=O)(=O)CCNCc1cccc(-c2ccc3c(Nc4ccc(Oc5cccnc5)cc4)ccnc3c2)c1`: the IC50 is 966 nM.
For the molecule `COCCOc1ccc(Nc2nccc(-c3c(-c4cccc(NC(=O)c5c(F)cccc5F)c4)nn4ccccc34)n2)cc1Cl`, the IC50 was 152 nM.
As for `Fc1cc(Cl)ccc1Nc1ccnc2cc(-c3ccc(CNCCN4CCOCC4)o3)ccc12`, the IC50 is 383 nM.
In the case of `CCn1c(-c2nonc2N)nc2c(-c3cccc(NC(=O)Nc4cccc(Cl)c4)c3)ncc(OCCCN)c21` it was 379 nM; in that of `CN1CCN(CCCNCc2ccc(Nc3nccc(Nc4ccc(Oc5ccccc5)cc4)n3)cc2)CC1`, 139 nM.
Take `COc1cc(Nc2nccc(-c3c(-c4cccc(NC(=O)c5c(F)cccc5F)c4)nn4ccccc34)n2)cc(OC)c1OC`: the IC50 was 60 nM.
In the case of `CN(C)CCNCc1nc(-c2ccc3c(Nc4ccc(Oc5ccccc5)cc4)ccnc3c2)cs1`, the IC50 was 887 nM.
In the case of `COCCNCc1ncsc1-c1ccc2c(Nc3cc(O)c(Cl)cc3F)ccnc2c1`, the IC50 was 150 nM.
For `CN(C)CCN(C)Cc1ccc(-c2ccc3c(Nc4ccc(Oc5ccccc5)cc4)ccnc3c2)o1`, the IC50 was 718 nM.
Consider `Oc1cc(-c2nc(C3(CNCc4ccc(Cl)cc4)CCCCC3)[nH]c2-c2ccncc2)ccc1Cl`, for which the IC50 is 846 nM.
Take `CNC(=O)c1ccccc1Nc1nc(Nc2ccc(N3CCOCC3)cc2)ncc1Cl`: the IC50 is 144 nM.
`CC(C)(CNC(=O)[C@@H]1CCCCN1)c1nc(-c2ccc(Cl)c(O)c2)c(-c2ccncc2)[nH]1`: the IC50 is 192 nM.
Consider `Oc1cccc(Nc2ccnc3cc(-c4ccncc4)ccc23)c1`, for which the IC50 is 884 nM.
Take `CC(C)(CNC(=O)[C@H]1CCCCN1)c1nc(-c2ccc(Cl)c(O)c2)c(-c2ccncc2)[nH]1`: the IC50 is 164 nM.
In the case of `COc1ccc(-c2cnc3ccc(NCCCO)nn23)cc1OC`, the IC50 is 361 nM.
On to `CC(C)(CNCc1ccccc1)c1nc(-c2ccc(Cl)c(O)c2)c(-c2ccncc2)[nH]1`, for which the IC50 was 190 nM.
Regarding `CN1CCN(Cc2cccc(-c3ccc4c(Nc5cc(O)c(Cl)cc5F)ccnc4c3)c2)CC1`, the half-inhibitory concentration (IC50) is 762 nM.
In the case of `N#Cc1ccc(-c2cnc3ccc(NCCc4cccnc4)nn23)cc1` it was 246 nM.
On to `NCCNS(=O)(=O)c1ccc(-c2ccnc3[nH]c(-c4ccncc4)cc23)cc1`, for which the IC50 was 422 nM.
To `CC(C)(CN)c1cc(-c2ccc(Cl)c(O)c2)c(-c2ccncc2)o1` belongs 13 nM; to `COc1cccc(Nc2nccc(-c3c(-c4cccc(NC(=O)c5c(F)cccc5F)c4)nn4ccccc34)n2)c1`, 87 nM.
Consider `CCn1c(-c2nonc2N)nc2c(-c3cccc(NC(=O)Nc4ccc5c(c4)CCC5)c3)ncc(OCCCN)c21`, for which the IC50 is 85 nM.
As for `NS(=O)(=O)c1ccc(Nc2nccc(-c3c(-c4cccc(NC(=O)c5c(F)cccc5F)c4)nn4ccccc34)n2)cc1`, the IC50 was 48 nM.
`CC(C)(CNC(=O)C1CCN(CCOc2ccc(F)c(F)c2)CC1)c1nc(-c2ccc(Cl)c(O)c2)c(-c2ccncc2)[nH]1`: the IC50 was 664 nM.
For the molecule `CN(C)CCOc1ccc(-c2cc(-c3ccnc(N)n3)c(-c3ccc(Cl)c(O)c3)o2)cc1`, the IC50 is 684 nM.
As for `CCn1c(-c2nonc2N)nc2c(-c3ccc(CO)o3)ncc(OCCCN)c21`, the 50% inhibitory concentration (IC50) was 51 nM.
Turning to `Cc1ccc(O)cc1Nc1ccnc2cc(-c3cccc(CNCCS(C)(=O)=O)c3)ccc12`, the IC50 is 125 nM.
With `CCn1c(-c2nonc2N)nc2c(-c3ccccc3)ncc(OCCCCNCCc3ncc[nH]3)c21`, the IC50 was 94 nM.
`c1ccc(Oc2ccc(Nc3ccnc(Nc4ccc(OCCN5CCCCC5)cc4)n3)cc2)cc1`: the IC50 is 701 nM.
With `NC[C@H](CC1CCCCC1)NC(=O)c1ccc(-c2ccnc3[nH]ccc23)s1`, the IC50 was 492 nM.
Consider `COc1ccc(-c2cnc3[nH]cc(-c4ccncc4)c3c2)cc1OC`, for which the IC50 is 390 nM.
For `CCn1c(-c2nonc2N)nc2c(-c3cccc(NC(=O)Nc4ccccc4Cl)c3)ncc(OCCCN)c21`, the IC50 is 72 nM.
In the case of `CS(=O)(=O)Cc1ccc(Nc2nccc(-c3c(-c4cccc(NC(=O)c5c(F)cccc5F)c4)nn4ccccc34)n2)cc1` it was 20 nM; in that of `CN1CCN(c2ccc(Nc3ncc(Cl)c(Nc4cccnc4C(N)=O)n3)cc2)CC1`, 12 nM.
For the molecule `c1ccc(Oc2ccc(Nc3ccnc4cc(-c5ccc(CNCCN6CCOCC6)o5)ccc34)cc2)cc1`, the IC50 was 435 nM.
In the case of `CC(C)(CNC(=O)[C@H]1CCCN1)c1nc(-c2ccc(Cl)c(O)c2)c(-c2ccncc2)[nH]1`, the IC50 is 179 nM.
In the case of `Nc1ncnc2occ(-c3ccc(NC(=O)Nc4cc(C(F)(F)F)ccc4F)cc3)c12` it was 165 nM; in that of `Cc1csc(-c2ncc(OC[C@@H](N)Cc3ccccc3)cc2-c2ccc3n[nH]c(C)c3c2)c1`, 44 nM.
With `CC(C)(CN)c1nc(-c2ccc(Cl)c(O)c2)c(-c2ccncc2)[nH]1`, the IC50 was 10 nM.
Take `CC(C)(C)CNCC(C)(C)c1nc(-c2ccc(Cl)c(O)c2)c(-c2ccncc2)[nH]1`: the 50% inhibitory concentration (IC50) is 159 nM.
Take `O=C(Nc1c(F)cccc1F)c1cccc(-c2nn3ccccc3c2-c2ccnc(Nc3cccc(-c4cnco4)c3)n2)c1`: the IC50 was 40 nM.
In the case of `Cn1c(Nc2cc(C(C)(C)C)on2)nc2cc(Nc3ccnc(Nc4cccc(CS(C)(=O)=O)c4)n3)ccc21` it was 114 nM; in that of `CS(=O)(=O)Cc1ccc(Nc2nccc(-c3c(-c4cccc(NC(=O)C5CCCCC5)c4)nn4ncccc34)n2)cc1`, 37 nM; in that of `CNC(=O)c1ccccc1Nc1nc(Nc2cccc(CS(C)(=O)=O)c2)ncc1C`, 145 nM.
Regarding `CC(C)(CNCc1ccc(Cl)c(Cl)c1)c1nc(-c2ccc(Cl)c(O)c2)c(-c2ccncc2)[nH]1`, the IC50 was 539 nM.
As for `CCN(CC)CCCOc1ccc(Nc2nccc(-c3c(-c4cccc(NC(=O)c5c(F)cccc5F)c4)nn4ccccc34)n2)cc1F`, the IC50 was 429 nM.
For `O=C(Nc1cccc(-c2nn3ccccc3c2-c2ccnc(Nc3cccc(-c4cnco4)c3)n2)c1)C1CCCCC1`, the half-inhibitory concentration (IC50) was 164 nM.
For `COCCNCc1cccc(-c2ccc3c(Nc4ccc(Oc5ccccc5)cc4)ccnc3c2)c1`, the IC50 is 979 nM.
For `Cc1cccc2[nH]c(-c3cc(-c4cn[nH]c4)cnc3N)nc12`, the IC50 is 296 nM.
Take `c1ccc(Oc2ccc(Nc3ccnc(Nc4ccc5cn[nH]c5c4)n3)cc2)cc1`: the IC50 was 765 nM.
`O=C(NCCN1CCCC1)c1cccc(Nc2nccc(Nc3ccc(Oc4ccccc4)cc3)n2)c1`: the IC50 is 213 nM.
Take `O=C(Nc1cccc(-c2nn3ccccc3c2-c2ccnc(Nc3ccc(C(=O)N4CCOCC4)cc3)n2)c1)c1c(F)cccc1F`: the IC50 was 92 nM.
To `CC(C)(CNC(=O)C1CCN(CCOc2ccc(Cl)cc2)CC1)c1nc(-c2ccc(Cl)c(O)c2)c(-c2ccncc2)[nH]1` belongs 471 nM; to `O=C(Nc1cccc(-c2nn3ccccc3c2-c2ccnc(Nc3ccc(-c4ccn[nH]4)cc3)n2)c1)c1c(F)cccc1F`, 22 nM; to `CN(C)CCNCc1ccc(-c2ccc3c(Nc4ccc(Oc5ccccc5)cc4)ccnc3c2)o1`, 681 nM.
Turning to `CC(C)(CNCc1ccc(F)c(F)c1)c1nc(-c2ccc(Cl)c(O)c2)c(-c2ccncc2)[nH]1`, the concentration for half-maximal inhibition (IC50) is 451 nM.
Regarding `CS(=O)(=O)Cc1ccc(Nc2nccc(-c3c(-c4cccc(C(=O)Nc5c(F)cccc5F)c4)nn4ccccc34)n2)cc1`, the IC50 is 50 nM.
As to `Nc1ncc(-c2cn[nH]c2)cc1-c1nc2ccc(Cl)cc2[nH]1`, the IC50 is 834 nM.
Take `CN(C)Cc1cccc(-c2cc3c(-c4cnn(C)c4)c(Cl)cnc3[nH]2)c1`: the IC50 is 402 nM.
On to `CN(C)CCNCc1ccc(-c2ccc3c(Nc4ccc(Cl)cc4F)ccnc3c2)o1`, for which the IC50 is 374 nM.
